The text below walks through data of US11220503B2, “Phthalazine derivatives, preparation method, pharmaceutical composition and usage thereof” (Shanghai SIMR Biotech Co., Ltd., priority 2015, dated 2022).

Assay [1] addresses T1, α5β3γ2 receptor (Homo sapiens, UniProt P18507+P31644).
T1 construct: expressed in transfected cells; host or cells: HEK-293 (stably transfected)
Nature of the assay: Supplementary data for cell level screening: new electrophysiology method (I. Lecker et al). The conditions noted are these: for Inverse agonism efficacy(%): new method, CsCl intracellular solution, GABA 0.1˜0.3 CM, other procedures as previous method; for inverse agonism efficacy of the compound/α5IA inverse agonism efficacy: ratio to the α5IA reference run above in the table (r4 or r29). Format: cell-based. As for the experimental part: The inventors used electrophysiological methods to assay the inverse agonist efficacy of the substance to be tested. The detailed procedures are as follows: (1) Different subunits of GABAA receptors were expressed in human embryonic kidney cells 293 (HEK293). The cells were cultured in a culture medium and used as a cell model for screening potential analgesics. The α, β and γ subunits are necessary to form complete functional GABAA receptors. In this example, the inventor has established the following cell model: (a) α5 subunit (protein sequence is GenBank accession number: NP_001158509), β3 subunit (protein sequence is GenBank accession number: NP_068712) and γ2 subunit (protein sequence is GenBank accession number: NP_944494) were expressed in HEK-293 cell lines at the same time, which formed the complete functional GABAA receptors. (2) Cells were stably transfected HEK-293 cells expressing α5β3γ2 receptor, which were labeled by green fluorescent protein (GFP). Cells were grown in 10 cm dishes. The cells were passaged after reaching 80-90% confluence. During passaging, the culture medium was removed and discarded, 3 mL DMEM medium (Gibco™) was added to the dishes, the dishes were shaken slightly, and DMEM was removed and discarded. 3 mL Trypsin (Trypsin-EDTA 0.05%, Gibco™) was added and cells were digested at 37° C. for 3 minutes. Then 3 mL complete growth medium (DMEM+10% horse serum (Gibco™)) was added and the cells at the bottom of the culture dishes were dispersed. The cell suspension were transferred to a 15 mL centrifugal tube (Corning®) and then centrifuged at 200 g for 3 minutes. The supernatant was discarded, 4 mL complete growth medium was added, and the cells were resuspended by gently blowing. The cell suspension was diluted by 1:5 or 1:10 for subculturing. The cell suspension was diluted by 1:12 for electrophysiology experiment, which are added to the 24 well plate (Corning®) which has a glass slide pre-treated with poly-D-lysine. The cells were adhered to the slide before the experiment was conducted. The cells were maintained in culture for no more than 24 hours before use. (3) Compound concentration: for screening, all compounds were diluted to a final concentration of 100 nM. […] The compounds were at the concentration of 1 nM, 10 nM, 50 nM, 100 nM and 1000 nM in dose-inverse agonism efficacy (%) experiment. The whole cell patch clamp technique was used in electrophysiology experiments. The extracellular solution (ECS) contained: 150 mM NaCl, 5 mM KCl, 2.5 mM CaCl2, 1 mM MgCl2, 10 mM HEPES and 10 mM glucose (pH 7.4); […], 5 mM EGTA, 10 mM HEPES ([…] water). The currents were recorded by an EPC-10 amplifier and the PatchMaster software (HEKA). Patch electrodes with a resistance of 5-6 MΩ were pulled from borosilicate glass (Sutter). The diluted compounds were perfused by OCTAFLOWII system. GFP positive and independently growing cells were selected for recording. During recording, the membrane voltage was clamped at −60 mV. During experiment, the cells were firstly perfused with ECS for 20 seconds. When the baseline reached to a stable state, cells were then perfused with GABA solution. Then the current induced by GABA can be detected. After about 20-40 seconds, the current was stable. ECS was switched to compounds solution and the effects of the compounds were detected. At last, the perfusion solution was switched to ECS. The experiment was finished when the post-baseline returned to the pre-baseline before compounds perfusion. Only the data whose pre-baseline and post-baseline are at almost the same level were used for analysis. […] Then, compounds were diluted at the desired concentration in GABA ECS. (4) Currents were analyzed with the PatchMaster (HEKA) software. The GABA currents before (Ipre) and after (Ipost) compounds perfusion were recorded respectively. The efficacies of compounds were calculated by the following equation: inverse agonism efficacy=(Ipost-Ipre)*100/Ipre. N indicates experiment numbers. […]

Assay [2] deals with T1, α5β3γ2 receptor. Nature of the assay: Cell level screening: whole cell patch clamp, inverse agonist efficacy. As to conditions: for inhibition at 0.1 µM: HEK293, compound 100 nM, GABA 0.05-0.1 μM, HEK293 α5β3γ2, clamped at −60 mV, (Ipost-Ipre)*100/Ipre, read-out: inverse agonism efficacy(%); for inverse agonism efficacy of the compound/α5IA inverse agonism efficacy: ratio to α5IA, compound 100 nM. It is filed as cell-based. The procedure:
The inventors used electrophysiological methods to assay the inverse agonist efficacy of the substance to be tested. The detailed procedures are as follows: (1) Different subunits of GABAA receptors were expressed in human embryonic kidney cells 293 (HEK293). The cells were cultured in a culture medium and used as a cell model for screening potential analgesics. The α, β and γ subunits are necessary to form complete functional GABAA receptors. In this example, the inventor has established the following cell model: (a) α5 subunit (protein sequence is GenBank accession number: NP_001158509), β3 subunit (protein sequence is GenBank accession number: NP_068712) and γ2 subunit (protein sequence is GenBank accession number: NP_944494) were expressed in HEK-293 cell lines at the same time, which formed the complete functional GABAA receptors. (2) Cells were stably transfected HEK-293 cells expressing α5β3γ2 receptor, which were labeled by green fluorescent protein (GFP). Cells were grown in 10 cm dishes. The cells were passaged after reaching 80-90% confluence. During passaging, the culture medium was removed and discarded, 3 mL DMEM medium (Gibco™) was added to the dishes, the dishes were shaken slightly, and DMEM was removed and discarded. 3 mL Trypsin (Trypsin-EDTA 0.05%, Gibco™) was added and cells were digested at 37° C. for 3 minutes. Then 3 mL complete growth medium (DMEM+10% horse serum (Gibco™)) was added and the cells at the bottom of the culture dishes were dispersed. The cell suspension were transferred to a 15 mL centrifugal tube (Corning®) and then centrifuged at 200 g for 3 minutes. The supernatant was discarded, 4 mL complete growth medium was added, and the cells were resuspended by gently blowing. The cell suspension was diluted by 1:5 or 1:10 for subculturing. The cell suspension was diluted by 1:12 for electrophysiology experiment, which are added to the 24 well plate (Corning®) which has a glass slide pre-treated with poly-D-lysine. The cells were adhered to the slide before the experiment was conducted. The cells were maintained in culture for no more than 24 hours before use. (3) Compound concentration: for screening, all compounds were diluted to a final concentration of 100 nM. GABA was diluted at the concentration of 0.05-0.1 μM. The compounds were at the concentration of 1 nM, 10 nM, 50 nM, 100 nM and 1000 nM in dose-inverse agonism efficacy (%) experiment. The whole cell patch clamp technique was used in electrophysiology experiments. The extracellular solution (ECS) contained: 150 mM NaCl, 5 mM KCl, 2.5 mM CaCl2, 1 mM MgCl2, 10 mM HEPES and 10 mM glucose (pH 7.4); Patch electrodes were filled with an intracellular solution containing: 140 mM KCl, 5 mM EGTA, 10 mM HEPES (adjusted to pH 7.4 with KOH and to 320-330 mOsm with water). The currents were recorded by an EPC-10 amplifier and the PatchMaster software (HEKA). Patch electrodes with a resistance of 5-6 MΩ were pulled from borosilicate glass (Sutter). The diluted compounds were perfused by OCTAFLOWII system. GFP positive and independently growing cells were selected for recording. During recording, the membrane voltage was clamped at −60 mV. During experiment, the cells were firstly perfused with ECS for 20 seconds. When the baseline reached to a stable state, cells were then perfused with GABA solution. Then the current induced by GABA can be detected. After about 20-40 seconds, the current was stable. ECS was switched to compounds solution and the effects of the compounds were detected. At last, the perfusion solution was switched to ECS. The experiment was finished when the post-baseline returned to the pre-baseline before compounds perfusion. Only the data whose pre-baseline and post-baseline are at almost the same level were used for analysis. GABA was diluted at the concentration of 0.05-0.1 μM in ECS. Then, compounds were diluted at the desired concentration in GABA ECS. (4) Currents were analyzed with the PatchMaster (HEKA) software. […]
A general note: Patch clamp records ionic current or voltage across a cell membrane.

The structures appear in SMILES notation.

T1 sequence (P31644 32-462): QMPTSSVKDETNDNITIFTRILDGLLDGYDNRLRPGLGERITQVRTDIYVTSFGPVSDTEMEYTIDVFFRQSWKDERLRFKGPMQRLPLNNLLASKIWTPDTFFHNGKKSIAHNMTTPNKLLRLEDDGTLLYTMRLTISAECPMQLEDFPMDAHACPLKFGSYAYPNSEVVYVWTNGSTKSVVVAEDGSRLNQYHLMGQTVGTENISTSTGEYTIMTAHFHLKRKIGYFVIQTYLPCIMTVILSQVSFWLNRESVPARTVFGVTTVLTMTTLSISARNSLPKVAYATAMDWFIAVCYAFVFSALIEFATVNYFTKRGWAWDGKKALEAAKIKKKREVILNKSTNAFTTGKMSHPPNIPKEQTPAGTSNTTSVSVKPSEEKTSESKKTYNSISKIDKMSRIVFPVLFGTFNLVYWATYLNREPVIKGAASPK
T1 sequence (P28472 26-473 isoform P28472-2 partner limits assumed): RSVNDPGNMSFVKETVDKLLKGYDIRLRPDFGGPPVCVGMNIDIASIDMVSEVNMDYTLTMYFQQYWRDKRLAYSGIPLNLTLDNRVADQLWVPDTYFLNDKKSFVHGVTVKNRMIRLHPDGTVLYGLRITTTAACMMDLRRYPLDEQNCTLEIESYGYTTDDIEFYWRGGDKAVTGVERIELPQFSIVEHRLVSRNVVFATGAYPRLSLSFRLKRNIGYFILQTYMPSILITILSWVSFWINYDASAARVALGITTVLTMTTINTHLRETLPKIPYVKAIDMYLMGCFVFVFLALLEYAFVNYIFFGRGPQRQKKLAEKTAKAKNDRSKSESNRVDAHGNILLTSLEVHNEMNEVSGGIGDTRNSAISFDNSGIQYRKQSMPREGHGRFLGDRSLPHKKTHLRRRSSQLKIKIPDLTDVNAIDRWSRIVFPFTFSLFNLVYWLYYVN
T1 sequence (P18507 40-475): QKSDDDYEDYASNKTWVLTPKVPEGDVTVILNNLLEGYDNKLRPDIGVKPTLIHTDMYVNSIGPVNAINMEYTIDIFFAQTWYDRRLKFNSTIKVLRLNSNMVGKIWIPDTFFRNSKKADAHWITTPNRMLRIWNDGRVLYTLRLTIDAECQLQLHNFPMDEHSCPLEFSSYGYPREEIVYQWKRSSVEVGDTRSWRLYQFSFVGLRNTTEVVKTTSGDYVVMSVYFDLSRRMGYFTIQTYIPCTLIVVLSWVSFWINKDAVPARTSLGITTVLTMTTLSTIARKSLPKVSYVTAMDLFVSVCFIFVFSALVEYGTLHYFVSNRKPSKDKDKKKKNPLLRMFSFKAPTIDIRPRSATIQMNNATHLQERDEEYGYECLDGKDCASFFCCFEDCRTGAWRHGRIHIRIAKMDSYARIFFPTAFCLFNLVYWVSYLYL

Turning to `Cc1cc(-c2nnc3c4ccccc4c(OCc4ccc(C(=O)NN5CCOCC5)cn4)nn23)no1` [Compound 01, 6-((3-(5-methylisoxazol-3-yl)-[1,2,4]triazolo[3,4-a]phthalazin-6-yloxy)methyl)-N-morpholinonicotinamide], on α5β3γ2 receptor [1], the “Inverse agonism efficacy(%)” value is −18.67% and the “inverse agonism efficacy of the compound/α5IA inverse agonism efficacy” value is listed as 1.075. Also, on α5β3γ2 receptor [2], the inhibition at 0.1 µM turned out to be 58% and the “inverse agonism efficacy of the compound/α5IA inverse agonism efficacy” value is 2.572.

As for `Cc1cc(-c2nnc3c4ccccc4c(OCc4ccc(C(=O)N[C@H](C)CO)cn4)nn23)no1` [Compound 02, (R)—N-(1-hydroxypropan-2-yl)-6-((3-(5-methylisoxazol-3-yl)-[1,2,4]triazolo[3,4-a]phthalazin-6-yloxy)methyl)nicotinamide], on α5β3γ2 receptor [1], the “Inverse agonism efficacy(%)” value was −21.33% and the “inverse agonism efficacy of the compound/α5IA inverse agonism efficacy” value amounted to 1.229. In addition, on α5β3γ2 receptor [2], the inhibition at 0.1 µM is 52.2% and the “inverse agonism efficacy of the compound/α5IA inverse agonism efficacy” value was 2.313.

As to `Cc1cc(-c2nnc3c4ccccc4c(OCc4ccc(C(=O)N[C@H]5CCC[C@@H]5O)cn4)nn23)no1` [Compound 03, N-((1S,2S)-2-hydroxycyclopentyl)-6-(((3-(5-methylisoxazol-3-yl)-[1,2,4]triazolo[3,4-a]phthalazin-6-yl)oxy)methyl)nicotinamide], on α5β3γ2 receptor [1], the “Inverse agonism efficacy(%)” value was −29.33% and the “inverse agonism efficacy of the compound/α5IA inverse agonism efficacy” value was 1.689. Further, at α5β3γ2 receptor [2], the inhibition at 0.1 µM came out at 41.3% and the “inverse agonism efficacy of the compound/α5IA inverse agonism efficacy” value is 1.832.

As for `CC(C)NC(=O)c1ccc(COc2nn3c(-c4cc(CO)on4)nnc3c3ccccc23)nc1` [Compound 38, 6-(((3-(5-(hydroxymethyl)isoxazol-3-yl)-[1,2,4]triazolo[3,4-a]phthalazin-6-yl)oxy)methyl)-N-iso propylnicotinamide], on α5β3γ2 receptor [1], the “Inverse agonism efficacy(%)” value is recorded as −52.5% and the “inverse agonism efficacy of the compound/α5IA inverse agonism efficacy” value is 3.023. On α5β3γ2 receptor [2], the inhibition at 0.1 µM was found to be 40% and the “inverse agonism efficacy of the compound/α5IA inverse agonism efficacy” value stood at 1.774.

`O=C(NCCO)c1ccc(COc2nn3c(-c4cc(CO)on4)nnc3c3ccccc23)nc1` [Compound 39, N-(2-hydroxyethyl)-6-(((3-(5-(hydroxymethyl)isoxazol-3-yl)-[1,2,4]triazolo[3,4-a]phthalazin-6-yl)oxy)methyl)nicotinamide]: on α5β3γ2 receptor [1], the “Inverse agonism efficacy(%)” value is listed as −26% and the “inverse agonism efficacy of the compound/α5IA inverse agonism efficacy” value came to 1.497. Also, on α5β3γ2 receptor [2], the inhibition at 0.1 µM turned out to be 49% and the “inverse agonism efficacy of the compound/α5IA inverse agonism efficacy” value came out at 2.174.

Regarding `O=C(c1ccc(COc2nn3c(-c4cc(CO)on4)nnc3c3ccccc23)nc1)N1CCS(=O)(=O)CC1` [Compound 40, (1,1-dioxidothiomorpholino)(6-(((3-(5-(hydroxymethyl)isoxazol-3-yl)-[1,2,4]triazolo[3,4-a]phthalazin-6-yl)oxy)methyl)pyridin-3-yl)methanone], on α5β3γ2 receptor [1], the “Inverse agonism efficacy(%)” value is −25.5% and the “inverse agonism efficacy of the compound/α5IA inverse agonism efficacy” value turned out to be 1.468. Also, at α5β3γ2 receptor [2], the inhibition at 0.1 µM is 29% and the “inverse agonism efficacy of the compound/α5IA inverse agonism efficacy” value is 1.286.

On to `COCCNC(=O)c1ccc(COc2nn3c(-c4cc(CO)on4)nnc3c3ccccc23)nc1` [Compound 43, 6-(((3-(5-(hydroxymethyl)isoxazol-3-yl)-[1,2,4]triazolo[3,4-a]phthalazin-6-yl)oxy)methyl)-N-(2-methoxyethyl)nicotinamide], for which, on α5β3γ2 receptor [1], the “Inverse agonism efficacy(%)” value is given as −35% and the “inverse agonism efficacy of the compound/α5IA inverse agonism efficacy” value is given as 2.015. Further, on α5β3γ2 receptor [2], the inhibition at 0.1 µM worked out at 27.9% and the “inverse agonism efficacy of the compound/α5IA inverse agonism efficacy” value was 1.239.

In the case of `O=C(NC1CCOC1)c1ccc(COc2nn3c(-c4cc(CO)on4)nnc3c3ccccc23)nc1` (centres unmarked) [Compound 47, 6-(((3-(5-(hydroxymethyl)isoxazol-3-yl)-[1,2,4]triazol[3,4-a]phthalazin-6-yl)oxy)methyl)-N-(tetrahydrofuran-3-yl)nicotinamide], on α5β3γ2 receptor [1], the “Inverse agonism efficacy(%)” value was −26.875% and the “inverse agonism efficacy of the compound/α5IA inverse agonism efficacy” value came to 1.547. Also, on α5β3γ2 receptor [2], the inhibition at 0.1 µM turned out to be 51.5% and the “inverse agonism efficacy of the compound/α5IA inverse agonism efficacy” value turned out to be 2.284.
